Measured values taken from patent US20150218141A1, “SUBSTITUTED CARBAMATE COMPOUNDS” (HOFFMANN-LA ROCHE INC, priority 2012, published 2015).
Structures can show the parent of a compound that is named as a salt.

Molecular target: T1, hTRPA1 (Homo sapiens, UniProt O75762)
T1 construct: host or cells: CHO-K1 Tet-On, Clone 20 (Chinese Hamster Ovary cells, inducible expression)
Assay: IC50 determination, dose response calcium flux (FLIPR) assay, ChanTest hTRPA1-CHO stably transfected cell line
Format: cell-based
Conditions: CHO-K1 Tet-On hTRPA1 cells, 30' preincubation, agonist cinnamaldehyde final 100 uM
Protocol: IC50 Determination of Exemplified Compounds Dose Response Assay: ChanTest hTRPA1-CHO Stably Transfected Cell Line
CHO-K1 Tet-On_HOMSA_TRPA1_Clone—20
Growth Media for CHO-K1 Tet-On_HOMSA_TRPA1_Clone—20 • Ham's F-12 with 10% tetracycline-free FBS • 1× penicillin-streptomycin • 1× glutamax • 0.01 mg/ml Blasticidin • 0.40 mg/ml Zeocin • The cell line doubling rate was ˜15 hours. […] Experiments were run at 24 hours post induction.
Plating Conditions CHOK1/TRPA1 Cells: • Harvested cells with 0.025% trypsin/EDTA. • Resuspended cells in growth media without selection antibiotics. • Measured cell density and diluted to 2.4×10^5 cells/ml in media containing 1 ug/ml Doxycycline Plate 25 ul/well into 384 well black/clear tissue culture-treated plates. • Incubated overnight at 37° C.
Reagents: • Replacement Buffer: Hank's Balanced Salt Solution, 20 mM HEPES along with 0.005% BSA and 2× Probenecid • Dye Loading Buffer: Cal-3 NW Calcium dye was prepared by dissolving the contents of one vial with […] Hank's Balanced Salt Solution containing 20 mM HEPES. • Control compounds for CHOK1/TRPA1 cells: AP-18, stock 10 mM, prepare 3.5× compound dilution in a Compound Buffer (HBSS/20 mM HEPES/0.005% BSA)—final concentration 10 uM.
Preparation of Cinnamaldehyde (Agonist Addition):
• Specific gravity=1.046 gm/cc • 1.32 gm/1.046 gm/cc=1.26 ml of stock • Add 1.74 ml DMSO=3.3 M stock • Working solution 4.5× (final 100 uM in Compound Buffer: HBSS/20 mM HEPES/0.005% BSA)
Compounds dilutions were prepared from 5 or 10 mM stock (100% DMSO): • Adjustments of volumes and concentrations were made at time of titration to reflect desired final assay concentrations. • Compounds were tested at either 20 μM three folds dilution 11 steps out or 30 μM two folds dilution 11 steps out. • 3 μl of diluted compound were transferred into Weidmann 384-well plate in duplicates side-by-side.
Compound plates were resuspended with 100 ul of HBSS/20 mM HEPES/0.005% BSA buffer (Compound Buffer):
Growth media was removed from the cell plates (20 ul) and 20 ul of the Replacement Buffer was added followed by addition of 25 ul of diluted dye. All three steps were performed using a Plate Washer BioTek 407. The plates were then incubated for 30′ at RT.
After incubation, both the cell and compound plates were brought to the FLIPR and 20 ul of the diluted compounds/antagonist/bk were transferred to the cell plates by the FLIPR. Plates were then incubated for 30′ at room temperature. After 30′ incubation, plates were returned to the FLIPR and 20 ul of 4.5× Cinnamaldehyde was added to the cell plates. During the compound addition as well as agonist addition, fluorescence readings were taken simultaneously from all 384 wells of the cell plate every 1.5 seconds. Five readings were taken to establish a stable baseline, then 20 ul of sample was rapidly (30 ul/sec) and simultaneously added to each well of the cell plate. The fluorescence was continuously monitored before, during and after sample/agonist addition for a total elapsed time of 100 seconds (compound addition) and 120 seconds (agonist addition). Responses (increase in peak fluorescence) in each well following agonist addition was determined. The initial fluorescence reading from each well, prior to ligand stimulation, was used a zero baseline value for the data from that well.

T1 sequence (O75762 whole entry): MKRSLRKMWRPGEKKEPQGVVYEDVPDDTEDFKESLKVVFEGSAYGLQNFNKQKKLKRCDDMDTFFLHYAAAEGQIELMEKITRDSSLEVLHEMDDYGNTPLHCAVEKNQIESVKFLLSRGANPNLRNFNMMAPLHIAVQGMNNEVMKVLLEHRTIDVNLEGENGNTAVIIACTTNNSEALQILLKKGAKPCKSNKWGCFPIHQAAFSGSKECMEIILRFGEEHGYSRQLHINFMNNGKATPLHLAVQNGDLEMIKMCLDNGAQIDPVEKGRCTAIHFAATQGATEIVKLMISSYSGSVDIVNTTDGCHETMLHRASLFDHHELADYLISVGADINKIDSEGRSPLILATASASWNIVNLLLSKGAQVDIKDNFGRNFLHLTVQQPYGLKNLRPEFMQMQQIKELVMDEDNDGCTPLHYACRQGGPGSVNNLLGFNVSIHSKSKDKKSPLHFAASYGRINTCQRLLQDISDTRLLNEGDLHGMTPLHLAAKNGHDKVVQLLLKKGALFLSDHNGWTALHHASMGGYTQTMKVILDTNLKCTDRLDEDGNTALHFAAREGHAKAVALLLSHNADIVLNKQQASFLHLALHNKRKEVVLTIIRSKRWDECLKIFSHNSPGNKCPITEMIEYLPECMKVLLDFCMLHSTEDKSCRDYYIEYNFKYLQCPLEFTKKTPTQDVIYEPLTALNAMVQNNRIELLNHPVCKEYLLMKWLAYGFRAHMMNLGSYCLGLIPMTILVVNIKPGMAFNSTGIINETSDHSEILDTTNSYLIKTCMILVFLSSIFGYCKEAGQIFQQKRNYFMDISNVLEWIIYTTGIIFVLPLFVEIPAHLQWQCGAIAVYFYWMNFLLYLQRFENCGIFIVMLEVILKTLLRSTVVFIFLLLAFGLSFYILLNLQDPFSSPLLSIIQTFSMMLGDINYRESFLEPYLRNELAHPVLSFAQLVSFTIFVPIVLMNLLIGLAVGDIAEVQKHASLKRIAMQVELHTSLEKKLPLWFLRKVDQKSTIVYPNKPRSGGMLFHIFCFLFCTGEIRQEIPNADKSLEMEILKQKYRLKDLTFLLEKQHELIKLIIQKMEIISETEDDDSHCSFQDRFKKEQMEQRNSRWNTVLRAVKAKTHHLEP

Q: How did the IC50 turn out when `COc1cc(OC)cc(C2CCCN(C[C@H](OC(=O)Nc3ccc(Cl)cc3)C(F)(F)F)C2)c1` (stereo partly drawn) [Example 21, (4-Chlorophenyl)-carbamic acid (S)-1-[3-(3,5-dimethoxyphenyl)-piperidin-1-ylmethyl]-2,2,2-trifluoroethyl ester] was run?
A: 203 nM

Q: Which IC50 does the source give for `O=C(Nc1ccc(Cl)cc1)O[C@@H](CN1CCC[C@H](c2cc(C(F)(F)F)cc(C(F)(F)F)c2)C1)C(F)(F)F` [Example 23, (4-Chlorophenyl)-carbamic acid (S)-1-[(R)-3-(3,5-bis-trifluoromethylphenyl)-piperidin-1ylmethyl]-2,2,2-trifluoroethyl ester] here?
A: 21.5 nM

Q: `O=C(Nc1ccc(Cl)cc1)OC(CN1CCCC(c2ccccc2)CC1)C(F)(F)F` (centres unmarked) [Example 27, (4-Chlorophenyl)-carbamic acid 2,2,2-trifluoro-1-(4-phenyl-azepan-1-ylmethyl)-ethyl ester] was tested. Which IC50 did it give?
A: 2260 nM

Q: With `O=C(Nc1ccc(Cl)cc1)O[C@@H](CN1CCCC(c2cccc(C(F)(F)F)c2)C1)C(F)(F)F` (stereo partly drawn) [Example 29, (4-Chlorophenyl)-carbamic acid (S)-2,2,2-trifluoro-1-[3-(3-trifluoromethylphenyl)-piperidin-1-ylmethyl]-ethyl ester hydrochloride] as the compound, how does the IC50 read?
A: 35.4 nM

Q: For `COc1cc(C2CCCN(C[C@H](OC(=O)Nc3ccc(Cl)cc3)C(F)(F)F)C2)ccc1F` (stereo partly drawn) [Example 31, (4-Chlorophenyl)-carbamic acid (S)-2,2,2-trifluoro-1-[3-(4-fluoro-3-methoxyphenyl)-piperidin-1-ylmethyl]-ethyl ester hydrochloride], which IC50 is on record?
A: 168 nM

Q: How did the IC50 turn out when `COc1cc([C@H]2CCCN(C[C@H](OC(=O)Nc3ccc(Cl)cc3)C(F)(F)F)C2)ccc1F` [Example 32, (4-Chloro-phenyl)-carbamic acid (S)-2,2,2-trifluoro-1-[(R)-3-(4-fluoro-3-methoxy-phenyl)-piperidin-1-ylmethyl]-ethyl ester hydrochloride] was run?
A: 113 nM

Q: How did the IC50 turn out when `O=C(Nc1ccc(Cl)cc1)O[C@@H](CN1CCC(F)(F)CC1)C(F)(F)F` [Example 33, (4-Chlorophenyl)-carbamic acid (S)-1-(4,4-difluoropiperidin-1-ylmethyl)-2,2,2-trifluoroethyl ester hydrochloride] was run?
A: 78.3 nM

Q: For `COCCOc1cc(C2CCCN(C[C@H](OC(=O)Nc3ccc(Cl)cc3)C(F)(F)F)C2)ccc1F` (stereo partly drawn) [Example 34, (4-Chlorophenyl)-carbamic acid (S)-2,2,2-trifluoro-1-{3-[4-fluoro-3-(2-methoxyethoxy)-phenyl]-piperidin-1-ylmethyl}-ethyl ester], which IC50 is on record?
A: 339 nM

Q: `COCCOc1cc([C@H]2CCCN(C[C@H](OC(=O)Nc3ccc(Cl)cc3)C(F)(F)F)C2)ccc1F` [Example 35, (4-Chlorophenyl)-carbamic acid (S)-2,2,2-trifluoro-1-{(R)-3-[4-fluoro-3-(2-methoxyethoxy)-phenyl]-piperidin-1-ylmethyl}-ethyl ester hydrochloride] was tested. Which IC50 did it give?
A: 334 nM

Q: With `O=C(Nc1ccc(Cl)cc1)OC(CN1CCCC(c2ccccc2)C1)C(F)(F)F` (centres unmarked) [Example 36, (4-Chlorophenyl)-carbamic acid 2,2,2-trifluoro-1-(3-phenylpiperidin-1-ylmethyl)-ethyl ester hydrochloride] as the compound, how does the IC50 read?
A: 625 nM

Q: Which IC50 does the source give for `O=C(Nc1ccc(Cl)cc1)OC(CN1CCCC(c2ccc(Cl)cc2)C1)C(F)(F)F` (centres unmarked) [Example 37, (4-Chlorophenyl)-carbamic acid 1-[3-(4-chlorophenyl)-piperidin-1-ylmethyl]-2,2,2-trifluoro ethyl ester] here?
A: 522 nM

Q: Which IC50 does the source give for `COc1ccc(C2CCCN(C[C@H](OC(=O)Nc3ccc(Cl)cc3)C(F)(F)F)C2)cc1` (stereo partly drawn) [Example 38, (4-Chlorophenyl)-carbamic acid (S)-2,2,2-trifluoro-1-[3-(4-methoxyphenyl)-piperidin-1-ylmethyl]-ethyl ester] here?
A: 622 nM

Q: How did the IC50 turn out when `O=C(Nc1ccc(Cl)cc1)O[C@@H](CN1CCCC(C(=O)c2ccccc2)C1)C(F)(F)F` (stereo partly drawn) [Example 39, (4-Chlorophenyl)-carbamic acid (S)-1-(3-benzoylpiperidin-1-ylmethyl)-2,2,2-trifluoroethyl ester hydrochloride] was run?
A: 865 nM

Q: With `O=C(Nc1ccc(Cl)cc1)O[C@@H](CN1CCCC(Oc2ccccc2)C1)C(F)(F)F` (stereo partly drawn) [Example 40, (4-Chlorophenyl)-carbamic acid (S)-2,2,2-trifluoro-1-(3-phenoxypiperidin-1-ylmethyl)-ethyl ester hydrochloride] as the compound, how does the IC50 read?
A: 191 nM

Q: `O=C(Nc1ccc(Cl)cc1)O[C@@H](CN1CCCC(c2cccc(F)c2)C1)C(F)(F)F` (stereo partly drawn) [Example 41, (4-Chlorophenyl)-carbamic acid (S)-2,2,2-trifluoro-1-[3-(3-fluorophenyl)-piperidin-1-ylmethyl]-ethyl ester hydrochloride] was tested. Which IC50 did it give?
A: 320 nM

Q: For `O=C(Nc1ccc(Cl)cc1)O[C@@H](CN1CCCC(c2ccc(F)cc2)C1)C(F)(F)F` (stereo partly drawn) [Example 42, (4-Chlorophenyl)-carbamic acid (S)-2,2,2-trifluoro-1-[3-(4-fluorophenyl)-piperidin-1-ylmethyl]-ethyl ester hydrochloride], which IC50 is on record?
A: 444 nM

Q: `CCOc1cccc(C2CCCN(C[C@H](OC(=O)Nc3ccc(Cl)cc3)C(F)(F)F)C2)c1` (stereo partly drawn) [Example 43, (4-Chlorophenyl)-carbamic acid (S)-1-[3-(3-ethoxyphenyl)-piperidin-1-ylmethyl]-2,2,2-trifluoroethyl ester hydrochloride] was tested. Which IC50 did it give?
A: 298 nM

Q: With `O=C(Nc1ccc(Cl)cc1)O[C@@H](CN1CCCC(Sc2ccccc2)C1)C(F)(F)F` (stereo partly drawn) [Example 44, (4-Chlorophenyl)-carbamic acid (S)-2,2,2-trifluoro-1-(3-phenylsulfanyl-piperidin-1-ylmethyl)-ethyl ester hydrochloride] as the compound, how does the IC50 read?
A: 172 nM

Q: With `O=C(Nc1ccc(Cl)cc1)O[C@@H](CN1CCCC(Oc2ccc(Cl)cc2)C1)C(F)(F)F` (stereo partly drawn) [Example 45, (4-Chlorophenyl)-carbamic acid (S)-1-[3-(4-chlorophenoxy)-piperidin-1-ylmethyl]-2,2,2-trifluoroethyl ester hydrochloride] as the compound, how does the IC50 read?
A: 139 nM

Q: With `N#Cc1ccc(OC2CCCN(C[C@H](OC(=O)Nc3ccc(Cl)cc3)C(F)(F)F)C2)cc1` (stereo partly drawn) [Example 46, (4-Chlorophenyl)-carbamic acid (S)-1-[3-(4-cyanophenoxy)-piperidin-1-ylmethyl]-2,2,2-trifluoroethyl ester hydrochloride] as the compound, how does the IC50 read?
A: 411 nM

Q: For `N#Cc1cccc(OC2CCCN(C[C@H](OC(=O)Nc3ccc(Cl)cc3)C(F)(F)F)C2)c1` (stereo partly drawn) [Example 47, (4-Chlorophenyl)-carbamic acid (S)-1-[3-(3-cyanophenoxy)-piperidin-1-ylmethyl]-2,2,2-trifluoroethyl ester hydrochloride], which IC50 is on record?
A: 219 nM

Q: With `O=C(Nc1ccc(Cl)cc1)O[C@@H](CN1CCCC(Oc2ccc(F)cc2)C1)C(F)(F)F` (stereo partly drawn) [Example 48, (4-Chlorophenyl)-carbamic acid (S)-1-[3-(4-fluorophenoxy)-piperidin-1-ylmethyl]-2,2,2-trifluoroethyl ester hydrochloride] as the compound, how does the IC50 read?
A: 147 nM

Q: For `COc1cccc(OC2CCCN(C[C@H](OC(=O)Nc3ccc(Cl)cc3)C(F)(F)F)C2)c1` (stereo partly drawn) [Example 49, (4-Chlorophenyl)-carbamic acid (S)-1-[3-(3-methoxyphenoxy)-piperidin-1-ylmethyl]-2,2,2-trifluoroethyl ester hydrochloride], which IC50 is on record?
A: 408 nM
